Data published in patent publication US20050176655A1, “Novel macrolide derivatives havaing effect of potentiating antifungal activity” (priority 2002, published 2005).

Test system: Candida albicans ATCC 64548
Experiment: Paper disk method, enhancing action for activities of azole antifungal agents
Type: cell-based
Settings: 24 hours; for Inhibition activity (inhibition ring mm) C. albicans ATCC 64548 GYM / Transparency of the inhibition ring C. albicans ATCC 64548 GYM: miconazole 0.03 μg/ml
Experimental: Test organisms used were Candida albicans ATCC 64548, fluconazole resistant Candida albicans ATCC 64550 and Aspergillus niger ATCC 6275. Candida spp. were cultured in Waksman broth (glucose 2.0%, peptone 0.5%, dry yeast 0.3%, meat extract 0.5%, NaCl 0.5% and CaCO3 0.3%, pH 7.0) at 27° C. for 40 hours, then 0.1% thereof was inoculated on GY agar medium (glucose 1.0%, yeast extract 0.5% and agar 0.8%, pH 6.0). Spore suspension 0.2% of Aspergillus niger ATCC 6275 was inoculated on GY agar medium.
Azole antifungal agents used were miconazole (Sigma Inc., the U.S.) and fluconazole (ICN Pharmaceuticals, Inc., the U.S.), and were added at concentrations without affecting growth on each test organisms follows.
Candida albicans ATCC 64548: miconazole 0.03 μg/ml or fluconazole 0.5 μg/ml.
In the above medium, a medium added with miconazole to GY medium (control) is designated as GYM, and a medium added with fluconazole is designated as GYF. Activities were assessed by means of paper disk method (thickness: 8 mm, ADVANTEC MFS INC., Japan). Diameter of inhibition ring is expressed with mm unit after culturing Candida spp. for 24 hours and Aspergillus niger ATCC 6275 for 48 hours. Transparency of the inhibition ring is assessed with 5 degrees of A, B, C, D and E (transparence<A<B<C<D<E<opaque).

[1] = 100 μg/8 mm disk, GYF, fluconazole 0.5 μg/ml

**Q.** CCC1OC(=O)C(C)C(OC2CC(C)(OC)C(O)C(C)O2)C(C)C(OC2OC(C)CC(N(C)C)C2O)C(C)(O)CC(C)C(=NOCCCCON=C2C(C)CC(C)(O)C(OC3OC(C)CC(N(C)C)C3O)C(C)C(OC3CC(C)(OC)C(O)C(C)O3)C(C)C(=O)OC(CC)C(C)(O)C(O)C2C)C(C)C(O)C1(C)O (centres unmarked) [Compound 764, 9(E)-4-{9(E)-oxime-erythromycin A}-2(E)buthyloxime-erythromycin A] was tested. Which “Inhibition activity (inhibition ring mm) C. albicans ATCC 64548 GYM” value (50 μg/8 mm disk) did it give?
**A.** Its value is 9 mm.

**Q.** What about the “Transparency of the inhibition ring C. albicans ATCC 64548 GYM” value (50 μg/8 mm disk) of the same compound?
**A.** The value was “E (Growth of test organism was inhibited 35% or less.)”.

**Q.** CCC1OC(=O)C(C)C(OC2CC(C)(OC)C(O)C(C)O2)C(C)C(OC2OC(C)CC(N(C)C)C2O)C(C)(O)CC(C)C(=NOCC=CCON=C2C(C)CC(C)(O)C(OC3OC(C)CC(N(C)C)C3O)C(C)C(OC3CC(C)(OC)C(O)C(C)O3)C(C)C(=O)OC(CC)C(C)(O)C(O)C2C)C(C)C(O)C1(C)O (centres unmarked) [Compound 759, 9(E)-4-{9(E)-oxime-erythromycin A}-2-butenyloxime-erythromycin A] was tested. Which “Inhibition activity (inhibition ring mm) C. albicans ATCC 64548 GYM” value (100 μg/8 mm disk) did it give?
**A.** The value was 13 mm.

**Q.** What about the “Transparency of the inhibition ring C. albicans ATCC 64548 GYM” value (100 μg/8 mm disk) of the same compound?
**A.** The value was “D (Growth of test organism was inhibited 35% or more and 55% or less.)”.

**Q.** What does the source list for CCC(O)C(C)(O)C1OC(=O)C(C)C(OC2CC(C)(OC)C(O)C(C)O2)C(C)C(OC2OC(C)CC(N(C)CCN(C)C3CC(C)OC(OC4C(C)C(OC5CC(C)(OC)C(O)C(C)O5)C(C)C(=O)OC(C(C)(O)C(O)CC)C(C)C5=C(C)CC4(C)O5)C3O)C2O)C2(C)CC(C)=C(O2)C1C (centres unmarked) [Compound 741, 3′-de-N-methyl-3′-N-{-amino-(3′-de-N-methyl-anhydro-pseudoerythromycin A 6,9-hemiketal)}ethyl-anhydro-pseudoerythromycinA 6,9-hemiketal]?
**A.** Inhibition activity (inhibition ring mm) C. albicans ATCC 64548 GYM (100 μg/8 mm disk): 14 mm; Transparency of the inhibition ring C. albicans ATCC 64548 GYM (100 μg/8 mm disk): D (Growth of test organism was inhibited 35% or more and 55% or less.)

**Q.** Which “Inhibition activity (inhibition ring mm) C. albicans ATCC 64548 GYM” value (10 μg/8 mm disk) does the source give for CCC1OC(=O)C(C)C(OC2CC(C)(OC)C(O)C(C)O2)C(C)C(OC2OC(C)CC(N(C)CC=CCN(C)C3CC(C)OC(OC4C(C)C(OC5CC(C)(OC)C(O)C(C)O5)C(C)C(=O)OC(CC)C(C)(O)C(O)C(C)C(=O)C(C)CC4(C)OC)C3O)C2O)C(C)(OC)CC(C)C(=O)C(C)C(O)C1(C)O (centres unmarked) [Compound 758, 3′-de-N-methyl-3′-N-{4-amino-(3′-de-N-methyl-clarythromycin A)}-2(E)-butenyl-clarythromycin A] here?
**A.** The value was 11 mm.

**Q.** What about the “Transparency of the inhibition ring C. albicans ATCC 64548 GYM” value (10 μg/8 mm disk) of the same compound?
**A.** Its value is “E (Growth of test organism was inhibited 35% or less.)”.

**Q.** And the “Inhibition activity (inhibition ring mm) C. albicans ATCC 64548 GYM” value (50 μg/8 mm disk)?
**A.** The value was 12 mm.

**Q.** What about the “Transparency of the inhibition ring C. albicans ATCC 64548 GYM” value (50 μg/8 mm disk) of the same compound?
**A.** The value was “D (Growth of test organism was inhibited 35% or more and 55% or less.)”.

**Q.** What about the “Inhibition activity (inhibition ring mm) C. albicans ATCC 64548 GYF” value [1] of the same compound?
**A.** Its value is 15 mm.

**Q.** And the “Transparency of the inhibition ring C. albicans ATCC 64548 GYF” value [1]?
**A.** Its value is “E (Growth of test organism was inhibited 35% or less.)”.

**Q.** How did the “Inhibition activity (inhibition ring mm) C. albicans ATCC 64548 GYM” value (10 μg/8 mm disk) turn out when “2′,4″,13-Tri-O-anhydro-pseudoerythromycin A 6,9-hemiketal [Compound 719]” was run?
**A.** Its value is 9 mm.

**Q.** What about the “Transparency of the inhibition ring C. albicans ATCC 64548 GYM” value (10 μg/8 mm disk) of the same compound?
**A.** Its value is “E (Growth of test organism was inhibited 35% or less.)”.

**Q.** And the “Inhibition activity (inhibition ring mm) C. albicans ATCC 64548 GYM” value (50 μg/8 mm disk)?
**A.** The value was 10 mm.

**Q.** What about the “Transparency of the inhibition ring C. albicans ATCC 64548 GYM” value (50 μg/8 mm disk) of the same compound?
**A.** The value was “E (Growth of test organism was inhibited 35% or less.)”.

**Q.** What about the “Inhibition activity (inhibition ring mm) C. albicans ATCC 64548 GYM” value (100 μg/8 mm disk) of the same compound?
**A.** Its value is 13 mm.

**Q.** And the “Transparency of the inhibition ring C. albicans ATCC 64548 GYM” value (100 μg/8 mm disk)?
**A.** Its value is “E (Growth of test organism was inhibited 35% or less.)”.

**Q.** For CCC1OC(=O)C(C)C(OC2CC(C)(OC)C(O)C(C)O2)C(C)C(OC2OC(C)CC(N(C)C)C2O)C(C)(O)CC(C)C(=NOCC=CCNCCNCC=CCON=C2C(C)CC(C)(O)C(OC3OC(C)CC(N(C)C)C3O)C(C)C(OC3CC(C)(OC)C(O)C(C)O3)C(C)C(=O)OC(CC)C(C)(O)C(O)C2C)C(C)C(O)C1(C)O (centres unmarked) [Compound 761], which “Inhibition activity (inhibition ring mm) C. albicans ATCC 64548 GYM” value (100 μg/8 mm disk) is on record?
**A.** The value was 14 mm.

**Q.** And the “Transparency of the inhibition ring C. albicans ATCC 64548 GYM” value (100 μg/8 mm disk)?
**A.** Its value is “E (Growth of test organism was inhibited 35% or less.)”.
